From patent publication US6245758A, “Methods of use for peroxynitrite decomposition catalysts, pharmaceutical compositions therefor” (priority 1996, dated 2001) come the findings set out here.

In this assay the test system is human aortic endothelial cells. Nature of the assay: Endothelial cell injury assay (51Cr release), neutrophil-mediated. In kind it is cell-based. The conditions noted are these: 2 h; TNF/C5a-activated neutrophils; FIG. 7. As to the method: Peroxynitrite catalyst, Fe(TMPyP), was added to neutrophils in the cell injury assay immediately before activation by TNF/C5a. After 2 h, the amount of specific cell injury was assessed by the amount of radiolabel released into the medium. Values represent the average of three replicas +/-SEM. *p<0.01 vs. 0 uM control by Dunnett's t Test.
[…]: Human recombinant tumor necrosis factor-alpha (TNF-a) was obtained from Genzyme Corporation, Cambridge, MA. Human recombinant complement C5a and L-arginine (L-arg) was purchased from Sigma Chemical Company, St. Louis, Mo. Authentic peroxynitrite in 50 mM NaOH was prepared as described above.
Preparation of Neutrophils: Human neutrophils were isolated from peripheral blood of healthy donors (Look, D. C., Rapp, S. R., Keller, B. T., and Holtzman, M. J. Am. J. Physiol., 263, L79-L87 [1992]). […]
Endothelial Cell Injury Assays: The cytotoxic effects of stimulated neutrophils or peroxynitrite on endothelial cells was determined using a ^51 Cr-release assay as described by Moldow (Moldow et. al. Methods Enzymol., 105, 378-385, [1984]). […]
^51 Cr release was determined by aspiration of the supernatant from each well (soluble fraction). […] Both fractions were analyzed by gamma scintillation spectrometry. Results were expressed as percent ^51 Cr release as follows: % release=cpm (soluble+nonadherent/total cpm per well)×100. […]

Molecules are shown by their SMILES.

In the case of `CC(=O)[O-].C[n+]1ccc(-c2c3nc(c(-c4cc[n+](C)cc4)c4ccc([n-]4)c(-c4cc[n+](C)cc4)c4nc(c(-c5cc[n+](C)cc5)c5ccc2[n-]5)C=C4)C=C3)cc1.Cc1ccc(S(=O)(=O)[O-])cc1.Cc1ccc(S(=O)(=O)[O-])cc1.Cc1ccc(S(=O)(=O)[O-])cc1.Cc1ccc(S(=O)(=O)[O-])cc1.[Fe+3]` [Fe(III)TMPyP, Acetato (5,10,15,20-tetrakis(N-methyl-4-pyridyl)porphinato) iron (III) tetra-tosylate], the “inhibition of neutrophil-mediated injury to endothelial cells” value is on record as “Inhibition of neutrophil-mediated injury to human aortic endothelial cells”.
